Experiment [1] has as its target Glutamate receptor ionotropic, kainate 1 (Rattus norvegicus, UniProt P22756).
Experiment [2] addresses Glutamate receptor ionotropic, NMDA 1 (Rattus norvegicus, UniProt P35439).
Another experiment has as its target Glutamate receptor 3 (Rattus norvegicus, UniProt P19492).

Usually Ki stands for a dissociation constant, usually derived from enzyme kinetics or from competition with a known ligand.

Where “and” joins values, the source holds several entries; their conditions need not be identical. Equal entries are not always repeated. A value given as a limit tells only on which side of the number the result lay.

Sequence of Glutamate receptor ionotropic, kainate 1 (P22756 whole entry): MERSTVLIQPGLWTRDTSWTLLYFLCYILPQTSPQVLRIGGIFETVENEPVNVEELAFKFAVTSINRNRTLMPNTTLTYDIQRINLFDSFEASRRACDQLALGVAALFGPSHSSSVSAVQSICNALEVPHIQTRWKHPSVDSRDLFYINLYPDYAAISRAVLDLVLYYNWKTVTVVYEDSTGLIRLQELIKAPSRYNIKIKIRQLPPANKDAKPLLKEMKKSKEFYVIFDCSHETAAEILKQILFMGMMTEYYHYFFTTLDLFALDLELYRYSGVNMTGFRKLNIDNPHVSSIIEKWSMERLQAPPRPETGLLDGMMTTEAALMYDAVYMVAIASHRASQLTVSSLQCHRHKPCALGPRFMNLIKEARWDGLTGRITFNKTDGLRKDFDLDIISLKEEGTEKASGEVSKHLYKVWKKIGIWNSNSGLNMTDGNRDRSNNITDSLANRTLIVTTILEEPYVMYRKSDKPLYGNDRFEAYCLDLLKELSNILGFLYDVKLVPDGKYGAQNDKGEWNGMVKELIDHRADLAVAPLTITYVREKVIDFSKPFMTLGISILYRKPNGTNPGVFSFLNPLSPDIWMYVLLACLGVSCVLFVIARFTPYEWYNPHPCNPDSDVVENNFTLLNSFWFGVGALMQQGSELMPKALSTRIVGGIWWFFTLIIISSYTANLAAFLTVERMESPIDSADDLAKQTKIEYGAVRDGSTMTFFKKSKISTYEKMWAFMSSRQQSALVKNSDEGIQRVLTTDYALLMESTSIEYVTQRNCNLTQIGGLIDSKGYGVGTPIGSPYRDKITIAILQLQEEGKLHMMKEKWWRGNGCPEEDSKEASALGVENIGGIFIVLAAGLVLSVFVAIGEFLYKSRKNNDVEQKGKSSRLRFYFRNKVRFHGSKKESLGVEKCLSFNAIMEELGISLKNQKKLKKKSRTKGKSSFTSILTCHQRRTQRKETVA
Sequence of Glutamate receptor 3 (P19492 whole entry): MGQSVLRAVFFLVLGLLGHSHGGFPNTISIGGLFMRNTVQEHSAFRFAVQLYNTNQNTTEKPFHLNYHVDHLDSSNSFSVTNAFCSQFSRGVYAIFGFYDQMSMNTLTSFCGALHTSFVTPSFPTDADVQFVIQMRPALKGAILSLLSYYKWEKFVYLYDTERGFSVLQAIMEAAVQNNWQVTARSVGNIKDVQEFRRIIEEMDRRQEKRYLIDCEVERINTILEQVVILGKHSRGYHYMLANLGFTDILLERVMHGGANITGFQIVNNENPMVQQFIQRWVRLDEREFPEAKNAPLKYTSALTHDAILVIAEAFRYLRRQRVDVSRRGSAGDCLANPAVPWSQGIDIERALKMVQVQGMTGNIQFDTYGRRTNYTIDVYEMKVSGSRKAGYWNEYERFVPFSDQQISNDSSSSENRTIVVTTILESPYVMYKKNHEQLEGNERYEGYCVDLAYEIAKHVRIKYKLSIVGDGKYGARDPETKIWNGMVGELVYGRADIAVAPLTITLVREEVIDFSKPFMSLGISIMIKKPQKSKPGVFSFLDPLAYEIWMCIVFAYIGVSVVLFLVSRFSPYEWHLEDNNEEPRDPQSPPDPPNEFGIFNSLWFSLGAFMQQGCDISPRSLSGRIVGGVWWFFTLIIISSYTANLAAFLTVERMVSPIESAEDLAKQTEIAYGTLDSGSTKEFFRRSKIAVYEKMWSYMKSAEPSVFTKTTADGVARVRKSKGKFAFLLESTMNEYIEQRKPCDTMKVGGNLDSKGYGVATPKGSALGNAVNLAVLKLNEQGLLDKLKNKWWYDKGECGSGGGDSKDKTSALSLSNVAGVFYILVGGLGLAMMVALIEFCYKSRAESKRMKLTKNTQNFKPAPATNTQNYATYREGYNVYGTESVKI

Consider `N#Cc1cc2nc(O)c(O)nc2cc1[N+](=O)[O-]` [7-Cyano-3-hydroxy-6-nitro-quinoxalin-2-ol anion], for which the Ki in experiment [1] was 1800 nM; in experiment [2], > 10000 nM and 5600 nM.

On to `O=C1N=c2cc(N(O)O)c(-n3ccnc3)cc2=NC1=O` [CAS_3035216], for which the results for the Ki (in experiment [1]; in experiment [2]; at Glutamate receptor 3) were 2200 nM, more than 10000 nM and 84 nM, respectively.
